According to ChEMBL document CHEMBL3525956, “Species independence in brain tissue binding using brain homogenates” (Drug Metab Dispos, 2011):

Assays:
[1] = Fraction unbound in Hartley guinea pig brain homogenates at 1 uM after 6 hrs by equilibrium dialysis method; settings: brain homogenate
[2] = Fraction unbound in Beagle dog brain homogenates at 1 uM after 6 hrs by equilibrium dialysis method; settings: brain homogenate
[3] = Fraction unbound in Sprague-Dawley rat brain homogenates at 1 uM after 6 hrs by equilibrium dialysis method; settings: brain homogenate
[4] = Fraction unbound in CD-1 mouse brain homogenates at 1 uM after 6 hrs by equilibrium dialysis method; settings: brain homogenate
[5] = Fraction unbound in cynomolgus monkey brain homogenates at 1 uM after 6 hrs by equilibrium dialysis method; settings: brain homogenate
[6] = Fraction unbound in human occipital cortex at 1 uM after 6 hrs by equilibrium dialysis method
[7] = Fraction unbound in Wistar Han rat brain homogenates at 1 uM after 6 hrs by equilibrium dialysis method; settings: brain homogenate

SMILES | fraction unbound at 6 h, 1 µM [1] | fraction unbound at 6 h, 1 µM [2] | fraction unbound at 6 h, 1 µM [3] | fraction unbound at 6 h, 1 µM [4] | fraction unbound at 6 h, 1 µM [5] | fraction unbound at 6 h, 1 µM [6] | fraction unbound at 6 h, 1 µM [7]
CC(C)C[C@H]1C(=O)N2CCC[C@H]2[C@]2(O)O[C@](NC(=O)[C@@H]3C=C4c5cccc6[nH]c(Br)c(c56)C[C@H]4N(C)C3)(C(C)C)C(=O)N12 [BROMOCRIPTINE] | 0.002 | 0.002 | 0.001 | 0.002 | 0.002 | 0.002 | 0.002
CNCCC=C1c2ccccc2CCc2ccccc21 [NORTRIPTYLINE] | 0.006 | 0.007 | 0.005 | 0.008 | 0.009 | 0.006 | 0.007
CCCCCCCN(CC)CCCC(O)c1ccc(NS(C)(=O)=O)cc1 (stereo unspecified) [IBUTILIDE] | 0.075 | 0.119 | 0.081 | 0.114 | 0.078 | 0.091 | 0.104
Cc1c(C(=O)NN2CCCCC2)nn(-c2ccc(Cl)cc2Cl)c1-c1ccc(Cl)cc1 [RIMONABANT] | 0.0004 | 0.0005 | 0.0006 | 0.0004 | 0.0006 | 0.0005 | 0.0004
CCN(CC)C(=O)/C(C#N)=C/c1cc(O)c(O)c([N+](=O)[O-])c1 [ENTACAPONE] | 0.019 | 0.02 | 0.017 | 0.026 | 0.031 | 0.025 | 0.021
CC(CC(c1ccccc1)c1ccccc1)NC(C)(C)C (stereo unspecified) [TERODILINE] | 0.059 | 0.148 | 0.02 | 0.049 | 0.071 | 0.028 | 0.025
CC(=O)CC(c1ccccc1)c1c(O)c2ccccc2oc1=O (stereo unspecified) [WARFARIN] | 0.326 | 0.384 | 0.199 | 0.094 | 0.318 | 0.295 | 0.183
COC(=O)C1=C(C)NC(C)=C(C(=O)OCCN(C)Cc2ccccc2)C1c1cccc([N+](=O)[O-])c1 (stereo unspecified) [NICARDIPINE] | 0.004 | 0.006 | 0.008 | 0.004 | 0.006 | 0.006 | 0.005
